According to ChEMBL document CHEMBL1201862, “PubChem BioAssay data set” (2004):
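Following 48 hours of exposure in 96-well plates, responses at five concentrations were used to interpolate endpoints linearly. GI50 = concentration required for 50% inhibition of growth.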 Activity calls are given as the source filed them. No stated cut-off is given here; in the data, active = GI50 up to about 1.1 µM and inactive = higher.

Experiments:
Experiment in all cases: NCI anticancer screen, dose series, 48 h
[1] = test system: UACC-62
[2] = test system: TK-10
[3] = test system: HCC 2998
[4] = test system: MOLT-4
[5] = test system: SNB-19
[6] = test system: NCI-H23
[7] = test system: SF-539
[8] = test system: SK-MEL-28
[9] = test system: HOP-62
[10] = test system: SW-620
[11] = test system: DLD-1
[12] = test system: SK-MEL-2
[13] = test system: K562
[14] = test system: HCT-116
[15] = test system: SN12C
[16] = test system: HOP-92
[17] = test system: OVCAR-5
[18] = test system: A549
[19] = test system: OVCAR-3

Measured: GI50

COC(=O)C(=O)C(C(=O)C(=O)Nc1cccc(C(C)=O)c1)c1nc2ccc([N+](=O)[O-])cc2nc1O (configuration not stated)
inactive: [1] > 100 µM | [2] > 100 µM | [3] > 100 µM | [4] > 100 µM | [5] > 100 µM | [6] > 100 µM | [7] > 100 µM | [8] > 100 µM | [9] > 100 µM | [10] > 100 µM | [11] > 100 µM | [12] > 100 µM | [13] > 100 µM | [14] > 100 µM | [15] > 100 µM | [16] > 100 µM | [17] > 100 µM | [18] > 100 µM

C[C@]12CCc3nonc3C1CC[C@@H]1C2CC[C@@]2(C)C1CC[C@@H]2O (some centres not stated)
inactive: [1] > 100 µM | [2] > 100 µM | [19] > 100 µM | [3] > 100 µM | [4] > 100 µM | [5] > 100 µM | [6] > 100 µM | [7] > 100 µM | [8] > 100 µM | [9] > 100 µM | [10] > 100 µM | [11] > 100 µM | [12] > 100 µM | [13] > 100 µM | [15] > 100 µM | [16] 94.4 µM | [17] > 100 µM | [18] > 100 µM

Cc1ccc(NC(=O)CCC(=O)C2CC(=O)CCC2=O)cc1C (configuration not stated)
inactive: [1] > 100 µM | [2] > 100 µM | [19] > 100 µM | [3] > 100 µM | [4] > 100 µM | [5] > 100 µM | [6] > 100 µM | [7] > 100 µM | [8] > 100 µM | [9] > 100 µM | [10] > 100 µM | [11] > 100 µM | [12] > 100 µM | [13] > 100 µM | [14] > 100 µM | [15] > 100 µM | [16] 76.4 µM | [17] > 100 µM | [18] > 100 µM

CN(/N=C/c1ccnc2ccccc12)c1c([N+](=O)[O-])cc([N+](=O)[O-])cc1[N+](=O)[O-]
inactive: [1] > 100 µM | [2] > 100 µM | [19] 41.6 µM | [3] > 100 µM | [4] 28.1 µM | [5] > 100 µM | [6] 35.1 µM | [7] > 100 µM | [8] 60.5 µM | [9] 88.3 µM | [10] 38.5 µM | [11] 37.4 µM | [12] 24.4 µM | [13] 30.7 µM | [15] > 100 µM | [16] 28.1 µM | [17] > 100 µM | [18] 94.8 µM

COc1ccccc1OCc1nnc(SCC(=O)O)n1-c1ccccc1
inactive: [1] > 100 µM | [2] > 100 µM | [19] > 100 µM | [3] > 100 µM | [4] > 100 µM | [6] > 100 µM | [7] > 100 µM | [8] > 100 µM | [9] > 100 µM | [11] > 100 µM | [12] > 100 µM | [14] > 100 µM | [15] > 100 µM | [16] > 100 µM | [17] > 100 µM | [18] > 100 µM

Cn1cc2ccccc2c1-c1nc(F)nc(Oc2ccc3c(c2)CC[C@@H]2C3CC[C@@]3(C)C2C[C@H](O)[C@@H]3O)n1 (some centres not stated)
inactive: [1] 17.5 µM | [2] 20.4 µM | [19] 20.7 µM | [3] 15.4 µM | [4] 5.43 µM | [5] 13.8 µM | [6] 18.3 µM | [7] 13.5 µM | [8] 19.7 µM | [9] 4.45 µM | [10] 4.14 µM | [11] 10.3 µM | [12] 13 µM | [13] 18.7 µM | [14] 14.3 µM | [15] 13.7 µM | [16] 22.3 µM | [17] 19.2 µM | [18] 18.6 µM

CN/N=C(/CC(=O)c1sc(NNC(C)=O)nc1C)C(=O)Nc1ccc(OC)cc1OC
inactive: [1] > 100 µM | [2] > 100 µM | [19] > 100 µM | [3] > 100 µM | [4] > 100 µM | [5] > 100 µM | [6] > 100 µM | [7] > 100 µM | [8] > 100 µM | [9] > 100 µM | [10] > 100 µM | [11] > 100 µM | [12] > 100 µM | [13] > 100 µM | [14] > 100 µM | [15] > 100 µM | [16] > 100 µM | [17] > 100 µM | [18] > 100 µM

O=C1c2ccc3c4ccccc4n(Cc4ccccc4)c3c2C(=O)N1c1ccccc1
inactive: [1] 17.3 µM | [2] 15.6 µM | [19] 5.5 µM | [3] 18.3 µM | [4] 3.05 µM | [5] 20 µM | [6] 12.9 µM | [7] 17.1 µM | [8] 17 µM | [9] > 36.9 µM | [10] 5.98 µM | [11] 17 µM | [12] 22.9 µM | [13] 6.07 µM | [14] 16.4 µM | [15] 16.5 µM | [16] 11.4 µM | [17] 17.6 µM | [18] 17.3 µM

NC(=O)c1ccccc1NC(=O)C(=O)Cc1nc2ccccc2nc1O
inactive: [1] > 100 µM | [2] > 100 µM | [19] > 100 µM | [3] > 100 µM | [4] > 100 µM | [5] > 100 µM | [6] > 100 µM | [7] 48.5 µM | [8] > 100 µM | [9] > 100 µM | [10] > 100 µM | [11] > 100 µM | [12] > 100 µM | [13] > 100 µM | [14] > 100 µM | [16] 98.6 µM | [17] 96.2 µM | [18] > 100 µM

CC(C)c1cccc(C(C)C)c1NC1=CC(=O)C(=O)c2ccccc21
inactive: [1] > 100 µM | [2] > 100 µM | [19] > 100 µM | [3] > 100 µM | [4] 58.5 µM | [5] > 100 µM | [6] 72.9 µM | [7] > 100 µM | [8] > 100 µM | [9] > 100 µM | [10] > 100 µM | [11] > 100 µM | [12] > 100 µM | [13] > 100 µM | [14] > 100 µM | [15] > 100 µM | [16] > 100 µM | [17] > 100 µM | [18] > 100 µM

O=C(O)/C(=C/C=C/c1ccccc1)c1csc(-c2nc(/C(=C\C=C\c3ccccc3)C(=O)O)cs2)n1
inactive: [1] 28.8 µM | [2] > 100 µM | [19] 23.4 µM | [3] 20.1 µM | [4] 1.69 µM | [5] 11.5 µM | [6] > 10 µM | [7] 21.2 µM | [8] 33 µM | [9] 18 µM | [10] 39.4 µM | [11] 12.6 µM | [12] 17.4 µM | [13] 21.9 µM | [14] 17.7 µM | [15] 28.7 µM | [16] 19.6 µM | [17] > 100 µM | [18] 43.8 µM

COC(=O)[C@H]1C2CC[C@@H]3C45C[C@@H](c6ccoc6)O[C@@H]4O[C@@H](O2)C31CCC5C (some centres not stated)
inactive: [1] > 100 µM | [2] > 100 µM | [19] > 100 µM | [3] 95.9 µM | [4] 69.7 µM | [5] > 100 µM | [6] > 100 µM | [7] > 100 µM | [9] > 100 µM | [10] > 100 µM | [11] > 100 µM | [12] 71.1 µM | [13] 32.1 µM | [14] > 100 µM | [15] > 100 µM | [16] 44.6 µM | [17] > 100 µM | [18] > 100 µM

O=C(NCc1ccc2ccc3cccnc3c2n1)c1ccc[n+](Cc2ccccc2)c1
inactive: [1] > 100 µM | [2] > 100 µM | [19] 55.6 µM | [3] > 100 µM | [4] > 100 µM | [5] > 100 µM | [6] > 100 µM | [7] > 100 µM | [8] > 100 µM | [9] > 100 µM | [10] > 100 µM | [11] > 100 µM | [12] > 100 µM | [13] 83.8 µM | [14] > 100 µM | [15] > 100 µM | [16] 37.7 µM | [17] > 100 µM | [18] > 100 µM

C/C(COc1ccccc1)=N\NC(N)=S
inactive: [1] > 100 µM | [2] > 100 µM | [19] > 100 µM | [3] > 100 µM | [4] > 100 µM | [6] > 100 µM | [7] 90.4 µM | [8] > 100 µM | [9] > 100 µM | [10] > 100 µM | [11] > 100 µM | [12] > 100 µM | [13] > 100 µM | [14] > 100 µM | [15] > 100 µM | [16] > 100 µM | [17] > 100 µM | [18] > 100 µM
